These results are taken from ChEMBL document CHEMBL1132854, “Structure-based design of ketone-containing, tripeptidyl human rhinovirus 3C protease inhibitors” (Bioorg Med Chem Lett, 2000).

For assay [1], the system named is Human rhinovirus sp. Description: Compound was evaluated for the inhibition of human rhinovirus 3C protease (3CP); No inhibition. The class given is functional, organism-based.
The subject of assay [2] is Human rhinovirus sp. Description: Compound was evaluated for in vitro cytotoxic concentration against HRV serotype-14 (HRV-14). The class given is functional.
The test system of assay [3] is Human rhinovirus sp. The experiment in a line: Compound was evaluated for in vitro effective concentration against HRV serotype-14 (HRV-14). Type of assay: functional, organism-based.
In assay [4] the test system is Human rhinovirus sp. Description: Compound was evaluated for the inhibition of human rhinovirus 3C protease (3CP). The class given is functional, organism-based.
The test system of assay [5] is Human rhinovirus sp. The experiment in a line: Compound was evaluated for in vitro cytotoxic concentration against HRV serotype-14 (HRV-1A). The class given is functional.
In assay [6] the test system is Human rhinovirus sp. The experiment in a line: Compound was evaluated for in vitro effective concentration against HRV serotype-14 (HRV-1A). The class given is functional, organism-based.
Assay [7] has as its system Human rhinovirus sp. The experiment in a line: Compound was evaluated for in vitro cytotoxic concentration against HRV serotype-14 (HRV-10). Type of assay: functional.
The subject of assay [8] is Human rhinovirus sp. Description: Compound was evaluated for in vitro effective concentration against HRV serotype-14 (HRV-10). The class given is functional, organism-based.

Broadly, the Ki is a dissociation constant, usually derived from enzyme kinetics or from competition with a known ligand. Read a low Ki as tighter binding. For orientation: CC50 means the concentration giving 50% cytotoxicity. For orientation: EC50 means the midpoint of the concentration-response curve. Low values mean an effect from little substance, high ones a need for much substance.

Square brackets hold non-standard residues; d marks the D form. Peptide text beside a SMILES is read from it. * marks the point of attachment. Cbz = O=C(OCc1ccccc1)*; Dap = NC[C@H](N)C(=O)O

With `CC(C)C[C@H](NC(=O)OCc1ccccc1)C(=O)N[C@@H](Cc1ccccc1)C(=O)N[C@@H](CCC(N)=O)C(O)c1nc2ccccc2s1` (stereo partly specified), the inhibitory constant (Ki) entry in assay [1] is “Not Active”. Besides, the CC50 in assay [2] stood at 80 µM. A half-maximal effect in assay [3] (EC50) was put at 32 µM.

In assay [2], `CC(C)C[C@H](NC(=O)OCc1ccccc1)C(=O)N[C@@H](Cc1ccccc1)C(=O)N[C@@H](C[C@@H]1CCNC1=O)C(=O)c1cc2ccccc2s1` registered a 50% cytotoxic concentration (CC50) of over 10 µM. In assay [4], this compound yielded a Ki of 4.7 µM. The concentration for a half-maximal effect (EC50) in assay [3] is over 10 µM.

Consider `Cc1cc(C(=O)N[C@H](C(=O)N[C@@H](Cc2ccc(F)cc2)C(=O)N[C@@H](C[C@@H]2CCNC2=O)C(=O)c2nc3ccccc3s2)C(C)C)no1`, for which the half-maximal cytotoxic concentration (CC50) in assay [5], in assay [2] and in assay [7] was 250 µM each time. Moreover, the EC50 in assay [6] is 0.34 µM; in assay [3] it was 0.34 µM; in assay [8] it was 0.25 µM. Further, in assay [4], the affinity corresponds to a Ki of 0.0045 µM.

As to `CC(C)C[C@H](NC(=O)OCc1ccccc1)C(=O)N[C@@H](Cc1ccccc1)C(=O)N[C@@H](C[C@@H]1CCNC1=O)C(O)c1nc2ccccc2s1` (stereo partly specified), the 50% cytotoxic concentration (CC50) in assay [2] was 63 µM. Further, the inhibition constant (Ki) in assay [4] turned out to be 34 µM. In assay [3], this compound came in with an EC50 of 7.9 µM.

Turning to `CC(C)C[C@H](NC(=O)OCc1ccccc1)C(=O)N[C@@H](Cc1ccccc1)C(=O)N[C@@H](C[C@@H]1CCNC1=O)C(=O)c1ccccc1`, in assay [2], the CC50 was over 10 µM. This compound also registered a Ki in assay [4] of 3.2 µM. In assay [3], this compound registered an EC50 of over 10 µM.

In assay [2], `CC(=O)NC[C@H](NC(=O)[C@H](Cc1ccccc1)NC(=O)[C@H](CC(C)C)NC(=O)OCc1ccccc1)C(=O)c1nc2ccccc2s1` yielded a cytotoxic concentration (CC50) of 25 µM. In assay [4], this compound returned an inhibitory constant (Ki) of 1.7 µM. Also, in assay [3], the EC50 is over 25 µM.

As to `CC(C)C[C@H](NC(=O)OCc1ccccc1)C(=O)N[C@@H](Cc1ccccc1)C(=O)N[C@@H](CCC(N)=O)C(=O)c1nc2ccccc2s1`, the CC50 in assay [2] is over 100 µM. Besides, affinity in assay [4] was put at a Ki of 3.5 µM. Moreover, the EC50 in assay [3] turned out to be 17 µM.

With `CC(C)C[C@H](NC(=O)OCc1ccccc1)C(=O)N[C@@H](Cc1ccccc1)C(=O)N[C@@H](C[C@@H]1CCNC1=O)C(=O)c1nccs1`, the CC50 in assay [2] came out at 240 µM. The Ki in assay [4] came to 0.7 µM. The midpoint of the response in assay [3], the EC50, lay at 7.9 µM.

For `CC(C)C[C@H](NC(=O)OCc1ccccc1)C(=O)N[C@@H](Cc1ccccc1)C(=O)N[C@@H](C[C@@H]1CCNC1=O)C(=O)c1ccccn1`, in assay [2], the CC50 came to 200 µM. This compound registered an inhibition constant (Ki) in assay [4] of 0.17 µM. In assay [3], this compound came in with an EC50 of 4 µM.

`CC(C)CC(NC(=O)OCc1ccccc1)C(=O)N[C@@H](Cc1ccccc1)C(=O)NC(CC1CCNC1=O)C(=O)c1nc2ccccc2s1` (stereo partly specified) yielded a CC50 in assay [2] of over 320 µM. For the same compound, affinity in assay [4] was put at a Ki of 0.065 µM. Moreover, a half-maximal effect in assay [3] (EC50) was put at 3.2 µM.

In assay [4], `CC(=O)NC[C@@H](C=O)NC(=O)[C@H](Cc1ccccc1)NC(=O)[C@H](CC(C)C)NC(=O)OCc1ccccc1` (Cbz-Leu-Phe-[Dap](Ac)-aldehyde) registered a Ki of 0.006 µM. In assay [3], this compound displayed an EC50 of 2.4 µM.
